# Assay results as given in patent US8927579B2, “Male contraceptive” (priority 2007, dated 2015).
# Structures can show the parent of a compound that is named as a salt.
# Columns and labels:
# [1] = test system: circular muscle of human vas deferens; experiment: IC50 against contractions evoked by high K+ (120 mM) in the presence of FPL 64176, circular muscle rings; settings: Homo sapiens; contractions evoked by K+ (120 mM) in the presence of FPL 64176 (1 μM); means ± S.E.M.
# Text: (§1) Human vas deferens specimens were obtained after elective vasectomies of healthy fertile men. College ethical approval and the consent of patients were obtained. The specimens were placed in ice-cold Krebs' medium, dissected-free of connective tissue/blood vessels and cut longitudinally into strips (longitudinal muscle preparations; 5-10 mm long & 1 mm wide) or transversely into rings (circular muscle preparations; 3 mm in length). The longitudinal and circular muscle preparations were then set up for tension recording (resting tension 5-7 mN) in a Perspex chamber superfused at 2 ml per min with Krebs' medium (36° C.) composed of (mM): NaCl, 118.8; NaHCO3, 25; KCl, 4.7; CaCl2.2H2O, 2.5; KH2PO4, 1.2; MgSO4.7H2O, 1.2; glucose, 11.1; ascorbic acid 0.1 and continuously gassed with 95% O2 and 5% CO2. Contractile responses were recorded via a Harvard-type force-displacement transducer. The analog signals were digitised using CIO-Das 16/Jr data acquisition software (Amplicon Liveline, Brighton, UK) and re-plotted on a microcomputer.
# (§2) Tissues were equilibrated for 180 min in Krebs' medium containing inhibitors of extraneuronal and neuronal reuptake of noradrenaline, oestradiol (1 μM) and desipramine (0.1 μM) respectively, inhibitors of catechol-O-methyltransferase and monoamine oxidase, tropolone (10 μM) and iproniazid (10 μM) respectively and the β-adrenoceptor blocker, propranolol (1 μM). At the end of the equilibration period, the tissues were stimulated with noradrenaline (100 μM). […] After a contact time of 30-40 min in this medium, different experimental protocols (described below) were adopted in order to • (a) Elucidate the contractile actions of L-type Ca^2+ agonists such as FPL 64176 or Bay K 8644. In these experiments, tissues were exposed to FPL 64176 (0.1-10 μM added cumulatively) or in separate experiments Bay K 8644 (0.1-10 μM added cumulatively). • (b) Investigate the effects of various diphenylalkylamines and conventional L-type Ca^2+ antagonists (methoxyverapamil or nifedipine) on contractions evoked by high concentrations of extracellular potassium (high [K^+]o) in the presence of L-type Ca^2+ agonists, FPL 64176 (1 μM) or Bay K 8644 (1 μM). In this protocol, tissues were stimulated with high [K^+]O (10, 30 and 120 mM at 10-15 min intervals) in normal Krebs' medium, then exposed to L-type Ca^2+ agonists for 20-30 min and subsequently stimulated with high [K^+]O (10, 30 and 120 mM) in the presence of the drugs. These provided the initial responses. Following this and in the continuous presence of the L-type Ca^2+ agonists, the tissues were exposed additionally to L-type Ca^2+ antagonists (conventional or diphenylalkylamines) or drug-free vehicle medium. After contact times of 25-50 min the tissues were stimulated, first with high [K^+]O (either 30 mM or 120 mM) in order to take account of the well-documented use-dependent action of the diphenylalkylamine Ca^2+ antagonists. Following recovery from the test contraction and after a further 30-40 min, the tissues were then stimulated with high [K^+]o (10, 30 and 120 mM). This protocol is illustrated in FIGS. 3 and 4. The resulting contractions were measured (see below) and expressed as a percentage of corresponding initial responses to high [K^+]o evoked in the presence of L-type Ca^2+ agonists (i.e. before exposure to L-type Ca^2+ antagonists). […] Subsequent analysis (see below) was between contractions of drug-treated tissues and time-matched controls • (c) Determine the inhibitory potencies (IC50 values) of various diphenylalkylamines and phenothiazines and conventional L-type Ca^2+ antagonists (nifedipine and methoxyverapamil) against contractions evoked in longitudinal and circular muscle of human vas deferens by high [K^+]o (120 mM) in the presence of FPL 64176. In these experiments, tissues were stimulated with high [K^+]o (120 mM); sequentially in normal Krebs' medium and after 25-30 min exposure to the L-type Ca^2+ agonist, FPL 64176, (1 μM, Initial response). […]
# [2] = test system: longitudinal muscle of human vas deferens; experiment: IC50 against contractions evoked by high K+ (120 mM) in the presence of FPL 64176, longitudinal muscle strips; settings: Homo sapiens; contractions evoked by K+ (120 mM) in the presence of FPL 64176 (1 μM); means ± S.E.M.
# Text: as §1, §2
# [3] = test system: circular muscle of human vas deferens; experiment: Inhibition of contractions evoked by high K+ in the presence of Bay K 8644, circular muscle; settings: [K+]o 30 mM & 120 mM in the presence of Bay K 8644 (1 μM)
# Protocol: (§3) Human vas deferens specimens were obtained after elective vasectomies of healthy fertile men. College ethical approval and the consent of patients were obtained. The specimens were placed in ice-cold Krebs' medium, dissected-free of connective tissue/blood vessels and cut longitudinally into strips (longitudinal muscle preparations; 5-10 mm long & 1 mm wide) or transversely into rings (circular muscle preparations; 3 mm in length). […] Contractile responses were recorded via a Harvard-type force-displacement transducer. […]
# (§4) Tissues were equilibrated for 180 min in Krebs' medium containing inhibitors of extraneuronal and neuronal reuptake of noradrenaline, oestradiol (1 μM) and desipramine (0.1 μM) respectively, inhibitors of catechol-O-methyltransferase and monoamine oxidase, tropolone (10 μM) and iproniazid (10 μM) respectively and the β-adrenoceptor blocker, propranolol (1 μM). […] The resulting contractions were measured (see below) and expressed as a percentage of corresponding initial responses to high [K^+]o evoked in the presence of L-type Ca^2+ agonists (i.e. before exposure to L-type Ca^2+ antagonists). […]
# [4] = test system: longitudinal muscle of human vas deferens; experiment: Inhibition of contractions evoked by high K+ in the presence of Bay K 8644, longitudinal muscle; settings: [K+]o 30 mM & 120 mM in the presence of Bay K 8644 (1 μM)
# Protocol: as §3, §4
# [5] = test system: circular muscle of human vas deferens; experiment: Inhibition at fixed concentration of contractions evoked by high K+ in the presence of FPL 64176, circular muscle; settings: [K+]o 30 mM in the presence of FPL 64176 (1.0 μM); drug 10 μM; hydrochloride
# Text: as §1
# Tissues were equilibrated for 180 min in Krebs' medium containing inhibitors of extraneuronal and neuronal reuptake of noradrenaline, oestradiol (1 μM) and desipramine (0.1 μM) respectively, inhibitors of catechol-O-methyltransferase and monoamine oxidase, tropolone (10 μM) and iproniazid (10 μM) respectively and the β-adrenoceptor blocker, propranolol (1 μM). At the end of the equilibration period, the tissues were stimulated with noradrenaline (100 μM). […] After a contact time of 30-40 min in this medium, different experimental protocols (described below) were adopted in order to • (a) Elucidate the contractile actions of L-type Ca^2+ agonists such as FPL 64176 or Bay K 8644. In these experiments, tissues were exposed to FPL 64176 (0.1-10 μM added cumulatively) or in separate experiments Bay K 8644 (0.1-10 μM added cumulatively). • (b) Investigate the effects of various diphenylalkylamines and conventional L-type Ca^2+ antagonists (methoxyverapamil or nifedipine) on contractions evoked by high concentrations of extracellular potassium (high [K^+]o) in the presence of L-type Ca^2+ agonists, FPL 64176 (1 μM) or Bay K 8644 (1 μM). In this protocol, tissues were stimulated with high [K^+]O (10, 30 and 120 mM at 10-15 min intervals) in normal Krebs' medium, then exposed to L-type Ca^2+ agonists for 20-30 min and subsequently stimulated with high [K^+]O (10, 30 and 120 mM) in the presence of the drugs. These provided the initial responses. Following this and in the continuous presence of the L-type Ca^2+ agonists, the tissues were exposed additionally to L-type Ca^2+ antagonists (conventional or diphenylalkylamines) or drug-free vehicle medium. After contact times of 25-50 min the tissues were stimulated, first with high [K^+]O (either 30 mM or 120 mM) in order to take account of the well-documented use-dependent action of the diphenylalkylamine Ca^2+ antagonists. Following recovery from the test contraction and after a further 30-40 min, the tissues were then stimulated with high [K^+]o (10, 30 and 120 mM). This protocol is illustrated in FIGS. 3 and 4. The resulting contractions were measured (see below) and expressed as a percentage of corresponding initial responses to high [K^+]o evoked in the presence of L-type Ca^2+ agonists (i.e. before exposure to L-type Ca^2+ antagonists). […]
compound,measurement,setting,value
"COC(=O)C1=C(C)NC(C)=C(C(=O)OC)C1c1ccccc1[N+](=O)[O-] [Nifedipine, nifedipine]",IC50,[1],2.19 ± 0.5 nM
same,IC50,[2],2.16 ± 0.8 nM
same,inhibition at 1 µM,"[3]; Homo sapiens, drug 1 μM, read-out: inhibition of circular muscle contractions relative to time-matched controls",66 to 73%
same,inhibition at 1 µM,"[4]; Homo sapiens, drug 1 μM, read-out: inhibition of longitudinal muscle contractions relative to time-matched controls",66 to 73%
"CC(NCCC(c1ccccc1)c1ccccc1)c1ccccc1 (stereo not drawn) [Fendiline, fendiline hydrochloride]",IC50,[1],17400 ± 5800 nM
same,inhibition of circular muscle contractions compared to time-matched controls,[5],35%
same,IC50,[2],3800 ± 900 nM
same,inhibition of circular muscle contractions relative to time-matched controls,[3]; drug 10 μM,0-20%
same,inhibition of longitudinal muscle contractions relative to time-matched controls,[4]; drug 10 μM,73-80%
